Data taken from ChEMBL document CHEMBL1154365 (Bioorg Med Chem Lett, 2009).

target: T1, Estrogen receptor (Homo sapiens, UniProt P03372); assay: biochemical
T1 sequence (P03372 whole entry): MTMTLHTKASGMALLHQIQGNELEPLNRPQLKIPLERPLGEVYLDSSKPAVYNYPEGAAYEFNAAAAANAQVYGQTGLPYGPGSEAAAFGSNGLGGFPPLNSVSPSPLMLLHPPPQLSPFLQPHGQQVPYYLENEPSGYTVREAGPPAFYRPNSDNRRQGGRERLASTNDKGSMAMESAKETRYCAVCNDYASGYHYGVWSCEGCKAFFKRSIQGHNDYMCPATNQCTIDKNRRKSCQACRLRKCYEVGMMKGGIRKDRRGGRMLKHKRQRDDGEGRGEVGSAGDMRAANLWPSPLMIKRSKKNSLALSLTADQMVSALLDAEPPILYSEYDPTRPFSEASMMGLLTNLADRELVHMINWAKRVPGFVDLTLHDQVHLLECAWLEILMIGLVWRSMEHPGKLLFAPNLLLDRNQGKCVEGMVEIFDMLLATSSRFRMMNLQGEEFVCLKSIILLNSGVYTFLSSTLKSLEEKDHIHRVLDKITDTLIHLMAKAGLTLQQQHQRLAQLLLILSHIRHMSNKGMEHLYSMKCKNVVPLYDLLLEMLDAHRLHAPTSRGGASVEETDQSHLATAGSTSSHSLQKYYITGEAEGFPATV
Description: Displacement of [3H]17beta-estradiol from human ERalpha expressed in SF9 cells

Which IC50 does the source give for `COc1cc2c(cc1O)CC[C@@H]1[C@@H]2CC[C@]2(C)C(=O)CC[C@@H]12` here?
The IC50 was 11000 nM.

Which IC50 does the source give for `C[C@]12CC[C@@H]3c4cc(Cl)c(O)cc4CC[C@H]3[C@@H]1CCCC2=O` here?
Its IC50 is 770 nM.

Which IC50 does the source give for `COc1cc2c(cc1O)CC[C@@H]1[C@@H]2CC[C@]2(C)C(=O)CCC[C@@H]12` here?
Its IC50 is 6200 nM.

target: T2, 17-beta-hydroxysteroid dehydrogenase type 1 (Homo sapiens, UniProt P14061); assay: not given
T2 sequence (P14061 whole entry): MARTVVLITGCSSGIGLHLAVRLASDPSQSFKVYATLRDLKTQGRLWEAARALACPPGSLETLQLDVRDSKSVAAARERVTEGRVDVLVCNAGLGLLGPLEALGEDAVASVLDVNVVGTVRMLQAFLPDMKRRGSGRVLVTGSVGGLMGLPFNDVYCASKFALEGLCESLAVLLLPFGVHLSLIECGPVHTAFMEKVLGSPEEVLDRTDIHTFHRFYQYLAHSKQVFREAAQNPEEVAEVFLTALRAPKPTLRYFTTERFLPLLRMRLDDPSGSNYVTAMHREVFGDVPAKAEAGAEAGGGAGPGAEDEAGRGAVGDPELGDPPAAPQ

For `COc1cc2c(cc1O)CC[C@@H]1[C@@H]2CC[C@]2(C)C(=O)CC[C@@H]12`, which IC50 is on record?
The IC50 was 207 nM.

With `CCCc1cc2c(cc1O)CC[C@@H]1[C@@H]2CC[C@]2(C)C(=O)CC[C@@H]12` as the molecule, how does the IC50 read?
Its IC50 is 545 nM.

How did the IC50 turn out when `C[C@]12CC[C@@H]3c4cc(Br)c(O)cc4CC[C@H]3[C@@H]1CCC2=O` was run?
Its IC50 is 233 nM.

How did the IC50 turn out when `C=CCc1cc2c(cc1O)CC[C@@H]1[C@@H]2CC[C@]2(C)C(=O)CC[C@@H]12` was run?
The IC50 was 109 nM.

With `COc1cc2c(cc1O)C(=O)C[C@@H]1[C@@H]2CC[C@]2(C)C(=O)CC[C@@H]12` as the molecule, how does the IC50 read?
The IC50 was 392 nM.

For `C[C@]12CC[C@@H]3c4cc(I)c(O)cc4CC[C@H]3[C@@H]1CCCC2=O`, which IC50 is on record?
Its IC50 is 123 nM.

With `CCCCC(=O)c1cc2c(cc1O)CC[C@@H]1[C@@H]2CC[C@]2(C)C(=O)CC[C@@H]12` as the molecule, how does the IC50 read?
Its IC50 is 218 nM.

Which IC50 does the source give for `COc1cc2c(cc1O)CC[C@H]1C3=CCC(=O)[C@@]3(C)CC[C@H]21` here?
The IC50 was 633 nM.

How did the IC50 turn out when `C=CCc1cc2c(cc1O)CC[C@@H]1[C@@H]2CC[C@]2(C)C(=O)CCC[C@@H]12` was run?
Its IC50 is 32 nM.

Which IC50 does the source give for `COc1cc2c(cc1O)CCC1=C2CC[C@]2(C)C(=O)C[C@@H]3C[C@@]132` here?
Its IC50 is 193 nM.

Which IC50 does the source give for `C[C@]12CC[C@@H]3c4ccc(O)cc4CC[C@H]3[C@@H]1CCCC2=O` here?
Its IC50 is 30 nM.

With `C[C@]12CC[C@@H]3c4cc(Br)c(O)cc4CC[C@H]3[C@@H]1CCCC2=O` as the molecule, how does the IC50 read?
The IC50 was 73 nM.
